{"source": "patent US8497083B2", "about": "“Fructosyl amino acid oxidase” (priority 2009, dated 2013)", "target": "T1, fructosyl amino acid oxidase from Pichia sp. N1-1 (N1-1 FAOD), wild type, SEQ ID NO: 2 (Pichia sp. N1-1, UniProt Q3L8U0)", "T1 construct": "427 aa", "T1 sequence (Q3L8U0 1-427)": "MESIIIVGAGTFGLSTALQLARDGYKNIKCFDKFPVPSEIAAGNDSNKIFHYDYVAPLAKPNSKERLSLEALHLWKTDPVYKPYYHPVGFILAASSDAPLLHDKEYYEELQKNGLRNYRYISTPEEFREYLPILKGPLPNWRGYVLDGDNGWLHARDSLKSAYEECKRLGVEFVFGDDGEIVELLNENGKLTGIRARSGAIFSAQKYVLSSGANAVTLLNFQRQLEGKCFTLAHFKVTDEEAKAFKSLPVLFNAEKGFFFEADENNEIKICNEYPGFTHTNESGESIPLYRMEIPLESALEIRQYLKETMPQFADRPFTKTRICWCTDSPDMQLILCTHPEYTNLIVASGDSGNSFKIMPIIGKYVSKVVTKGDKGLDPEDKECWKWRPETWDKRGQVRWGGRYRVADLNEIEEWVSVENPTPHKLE", "test": "Dehydrogenase activity kinetics (mPMS/DCIP), N1-1 FAOD wild type", "assay_type": "biochemical", "conditions": "mPMS/DCIP over 4AA/TODB/POD", "source_text": "As used herein, “dehydrogenase activity” is an enzymatic activity (Vmax) of the fructosyl amino acid oxidase to catalyze oxidation of fructosyl amino acid to generate 2-keto-D-glucose and the corresponding amino acid while utilizing an electron mediator other than oxygen as an electron acceptor. The dehydrogenase activity may be assayed by measuring the amount of electrons transferred to the mediator using, for example, one of mPMS/DCIP (1-methoxy-5-methylphenazinium methylsulfate/2,6-dichloroindophenol), cPES (trifluoro-acetate-1-(3-carboxy-propoxy)-5-ethyl-phenanzinium, NA BM31—1144 (N,N-bis-(hydroxyethyl)-3-methoxynitrosoaniline hydrochloride, NA BM31—1008 (N,N-bis-hydroxyethyl-4-nitrosoaniline) and N—N-4-dimethyl-nitrosoaniline.\nAs used herein in the context of the relative or quantitative activity, the dehydrogenase activity is specifically defined to be the mole amount of the substrate (fructosyl amino acid) oxidized per unit time measured by the amount of electrons transferred to the mediator at 25° C. in 10 mM PPB (pH 7.0), 0.6 mM DCIP, and 6 mM methoxy PMS (mPMS).\nEscherichia coli BL21 (DE3) cells harboring expression vectors of N1-1 FAOD (SEQ ID NO: 2) mutants were grown in 150 ml of LB medium containing 50 μg/ml kanamycin at 37° C. […] The formation of quinoneimine dye was measured spectrophotometrically at 546 nm. […]", "data": [{"smiles": "CC(C)[C@H](NCC1(O)OC[C@@H](O)[C@@H](O)[C@@H]1O)C(=O)O", "note": "(some centres unmarked) [f-αVal, fructosyl valine]", "values": [{"measurement": "B/A (Vmax dehydrogenase/Vmax oxidase)", "setting": "crude preparation", "value": 1.2}, {"measurement": "B/A (Vmax dehydrogenase/Vmax oxidase)", "setting": "purified enzyme", "value": 1.1}]}]}
